Values of other authors as cited in patent publication US20220192199A1, “METHOD FOR REMOVING BIOFILM” (KAO CORPORATION, priority 2019, published 2022).

Conditions: primary dissociation constant

Compound	pKa1
O=C(O)[C@H](O)[C@@H](O)[C@H](O)[C@H](O)CO [gluconic acid]	3.86
O=C(O)CCO [3-hydoxypropionic acid]	4.5
